# Source: the RepoRT retention time repository (doi:10.1016/j.jhazmat.2019.121712)
# Assay: Thermo Scientific Acclaim RSLC 120 C18, 100 × 2.1 mm, 2.2 µm, 30 °C; A: 90% water + 10% methanol + 0.01% formic acid + 5 mM ammonium formate; B: methanol + 0.01% formic acid + 5 mM ammonium formate; gradient (min/%B) 0.1/1 3/39 14/99.9 16/99.9
# Conditions: stereoisomer not certain
row,SMILES,LC retention time [min]
1,O=C(O)c1ccccc1C(=O)Nc1cccc2ccccc12,6.75
2,CCC1=C(C)CN(C(=O)NCCc2ccc(S(=O)(=O)NC(=O)NC3CCC(C)CC3)cc2)C1=O (stereo not given),10.7
3,CC12CCC(=O)C=C1CCC1C2CCC2(C)C(C(=O)COC(=O)CCc3ccccc3)CCC12 (stereo not given),13
4,Cn1cc[nH]c1=S,2.61
5,CCCCOC(=O)c1ccccc1C(=O)OCCCC,12
6,CCn1nc(C(=O)O)c(=O)c2cc3c(cc21)OCO3,5.32
7,CN1CCCN=C1COC(=O)C(O)(c1ccccc1)C1CCCCC1 (stereo not given),7.98
8,CCCCCn1cc(C(=O)Cc2ccc(OC)cc2)c2ccccc21,11.6
9,CCCCCCn1cc(C(=O)c2cccc3ccccc23)cc1-c1ccccc1,13.3
10,CC(=O)c1cc2cccc(OCC(O)CNC(C)C)c2o1 (stereo not given),4.93
11,COc1ccc(OC)c(CC(C)N)c1 (stereo not given),4.78
12,O=C(O)c1cc(N=Nc2ccc(S(=O)(=O)Nc3ccccn3)cc2)ccc1O,6.61
13,C[N+](C)([O-])CCC(c1ccccc1)c1ccccn1 (stereo not given),5.39
14,CC(=O)SC1CC2=CC(=O)CCC2(C)C2CCC3(C)C(CCC34CCC(=O)O4)C12 (stereo not given),9.24
15,CCCNC1CCc2nc(N)sc2C1 (stereo not given),2.64
16,CCCCCCCCCCOc1cc2c(=O)c(C(=O)OCC)c[nH]c2cc1OCC,13.4
17,CNC(=O)Oc1cc(C)cc(C)c1C,8.4
18,CC(C(=O)c1ccc2c(c1)OCO2)N1CCCC1 (stereo not given),4.13
19,OCCN(CCO)c1nc(N2CCCCC2)c2nc(N(CCO)CCO)nc(N3CCCCC3)c2n1,9.36
20,Cc1ccc(N(CC2=NCCN2)c2cccc(O)c2)cc1,5.86
21,CC=CC(=O)N(CC)c1ccccc1C,9.24
22,NC(N)=NS(=O)(=O)c1ccc(N)cc1,1.93
23,COP(=S)(OC)Oc1ccc(S(=O)(=O)N(C)C)cc1,7.99
24,CN(C(=O)COc1nc2ccccc2s1)c1ccccc1,9.83
25,CC(C(=O)c1ccccc1)N(C)C (stereo not given),3.64
26,CCOP(=S)(OCC)Oc1cc(C)nc(C(C)C)n1,11
27,CC1(OC(=O)C=Cc2ccccc2)CC(O)C2(O)C=COC(OC3OC(CO)C(O)C(O)C3O)C12 (stereo not given),8.25

row,SMILES,LC retention time [min]
1,CC(=O)N=c1sc(S(N)(=O)=O)nn1C,4.28
2,Cc1cc2c(s1)Nc1ccccc1N=C2N1CCN(C)CC1,4.99
3,CC=CCC1=C(C)C(OC(=O)C2C(C=C(C)C(=O)OC)C2(C)C)CC1=O (stereo not given),11.6
4,CCCC(C(=O)OCCN(CC)CC)(c1ccccc1)c1ccccc1,9.41
5,Cc1onc(-c2ccccc2)c1-c1ccc(S(N)(=O)=O)cc1,7.37
6,CCCc1nn(C)c2c(=O)[nH]c(-c3cc(S(=O)(=O)N4CCN(C)CC4)ccc3OCC)nc12,7.88
7,CC(Cc1ccccc1)NCCn1cnc2c1c(=O)n(C)c(=O)n2C (stereo not given),5.06
8,CNC(C)Cc1ccccc1OC (stereo not given),4.69
9,COC1C(OC(N)=O)C(O)C(Oc2ccc3c(O)c(NC(=O)c4ccc(O)c(CC=C(C)C)c4)c(=O)oc3c2C)OC1(C)C (stereo not given),11.2
10,COC(=O)c1sccc1S(=O)(=O)NC(=O)Nc1nc(C)nc(OC)n1,6.24
11,COC1CC(OC2C(C)OC(OC3C(C)=CCC4CC(CC5(CCC(C)C(C(C)C)O5)O4)OC(=O)C4C=C(C)C(O)C5OCC(=CC=CC3C)C45O)CC2OC)OC(C)C1O (stereo not given),14.2
12,COc1cc(OC)nc(NC(=O)NS(=O)(=O)c2c(-c3nnn(C)n3)cnn2C)n1,7.62
13,Cc1cc(=O)n(-c2ccccc2)n1C,4.63
14,CCS(=O)Cc1ccccc1OC(=O)NC (stereo not given),4.7
15,CSc1nc(N)nc(NC(C)(C)C)n1,8.43
16,CC(C)NCC(O)c1ccc(N)c(C#N)c1 (stereo not given),2.99
17,COc1cccc(N(C)C(=S)Oc2cccc(C(C)(C)C)c2)n1,12.5
18,CCCc1nn(C)c2c(=S)nc(-c3cc(S(=O)(=O)N4CCN(CCO)CC4)ccc3OCC)[nH]c12,10.5
19,Cc1cccc(C)c1OCC(=O)NC(Cc1ccccc1)C(O)CC(Cc1ccccc1)NC(=O)C(C(C)C)N1CCCNC1=O (stereo not given),11.8
20,CCOC1OC(C(=O)O)C(O)C(O)C1O (stereo not given),1.52
21,COC(=O)Nc1cccc(OC(=O)Nc2cccc(C)c2)c1,8.75
22,CC(C)OC(=O)Nc1ccccc1,8.11
23,CCNC(C)C(=O)c1ccc2c(c1)OCO2 (stereo not given),4.04
24,CN1CCC(=C2c3ccccc3CCc3cccnc32)CC1,5.99
25,CCOP(=S)(OCC)Oc1cc(-c2ccccc2)on1,11.3
26,CN(CCO)c1nc2c(c(=O)n(C)c(=O)n2C)n1C,4.94
27,Cc1nc(N(C)C)nc(OC(=O)N(C)C)c1C,7.77

row,SMILES,LC retention time [min]
1,CC(Cc1ccc(O)cc1)NCC(O)c1cc(O)cc(O)c1 (stereo not given),3.61
2,COCCCOc1ccnc(CS(=O)c2nc3ccccc3[nH]2)c1C (stereo not given),7.52
3,CC(C)NCC(O)COc1ccc(COCCOC(C)C)cc1 (stereo not given),5.91
4,CNCC1CCCCC1(O)c1cccc(O)c1 (stereo not given),4.28
5,COc1nc(NC(C)C)nc(NC(C)C)n1,8.86
6,Cc1cccc(Nc2ccccc2C(=O)O)c1C,11.6
7,COC(=O)CCc1ccc(OCC(O)CNC(C)C)cc1 (stereo not given),5.18
8,Cc1ccc(C(=CCN2CCCC2)c2ccccn2)cc1,6.28
9,COP(=O)(OC)Oc1ccc(SC)c(C)c1,8.82
10,CC(C)N(Cc1ccccc1)C(=O)C(C)(C)C,10.2
11,COc1ccc(CC2c3cc(OC)c(OC)cc3CCN2C)cc1OC (stereo not given),4.71
12,COP(=S)(OC)Oc1ccc(SC)c(C)c1,11
13,CC=CC(=O)Oc1c(C(C)CCCCCC)cc([N+](=O)[O-])cc1[N+](=O)[O-] (stereo not given),13.1
14,CC(CN1CCN(CCOCCO)CC1)CN1c2ccccc2Sc2ccccc21 (stereo not given),9.08
15,CCOP(=S)(NC(C)CC)Oc1cc(C)ccc1[N+](=O)[O-] (stereo not given),11.2
16,CCOP(=S)(OCC)SCCSCC,11.5
17,CCOC(=O)C1C(OC(=O)c2ccccc2)CC2CCC1N2C (stereo not given),5.46
18,CC(C)(C)c1ccc(CCOc2ncnc3ccccc23)cc1,13.7
19,CN(C)CCC(c1ccccc1)c1ccccn1 (stereo not given),4.98
20,CCCc1nc(C)c2c(=O)[nH]c(-c3cc(S(=O)(=O)N4CCN(CC)CC4)ccc3OCC)nn12,8.11
21,CC(=O)OCC(=O)C12N=C(C)OC1CC1C3CCC4=CC(=O)C=CC4(C)C3C(O)CC12C (stereo not given),9.35
22,CC(=O)OC1CN2CCC1CC2 (stereo not given),4.87
23,COC(=O)C1C(O)CC2CCC1N2C (stereo not given),1.38
24,CCOC(=O)CCN(Cc1ccccc1)SN(C)C(=O)ON=C(C)SC,10.8
25,CN=CNc1ccc(C)cc1C,4.44
26,COC(C)(C)CCCC(C)CC=CC(C)=CC(=O)OC(C)C (stereo not given),13.6
